Drawing on US20120028968A1 (priority 2009, published 2012), this text covers IC50 for one molecule.

Counter-ions that a name gives are not always drawn.

This experiment has as its target α7-subtype of nicotinic receptors (Rattus norvegicus, UniProt Q05941). Kind of experiment: biochemical. The format is binding.

Sequence of α7-subtype of nicotinic receptors (Q05941 23-502): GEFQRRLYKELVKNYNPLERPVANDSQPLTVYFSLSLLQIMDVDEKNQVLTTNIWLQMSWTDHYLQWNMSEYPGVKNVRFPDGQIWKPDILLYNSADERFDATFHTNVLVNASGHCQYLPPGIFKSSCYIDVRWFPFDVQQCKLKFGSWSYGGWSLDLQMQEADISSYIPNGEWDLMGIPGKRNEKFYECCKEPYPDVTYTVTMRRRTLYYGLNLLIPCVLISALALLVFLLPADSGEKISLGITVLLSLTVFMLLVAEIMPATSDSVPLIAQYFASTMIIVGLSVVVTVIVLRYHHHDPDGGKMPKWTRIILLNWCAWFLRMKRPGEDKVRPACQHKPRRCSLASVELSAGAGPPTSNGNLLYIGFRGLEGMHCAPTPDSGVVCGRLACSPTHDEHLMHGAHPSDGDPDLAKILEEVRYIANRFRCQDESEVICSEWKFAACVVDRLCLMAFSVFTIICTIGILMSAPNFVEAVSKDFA

The molecule `c1ccc2c(c1)oc1c(-c3nnc(N4CCN5CCC4CC5)o3)cccc12` [Compound 1, 4-(5-Dibenzofuran-4-yl-[1,3,4]oxadiazol-2-yl)-1,4-diaza-bicyclo[3.2.2]nonane fumaric acid salt] yielded an IC50 of 16 nM.

For orientation: IC50 means the midpoint of a concentration-inhibition curve.
